One may read the Kd as the free concentration of one partner at which half of the binding sites on the other are occupied at equilibrium, for simple one-to-one binding. Low readings indicate tighter binding, high ones weaker binding. By stoichiometry N is commonly meant the number of molecules, sites or subunits per partner or assembly.

In series [1] the target is T1, PfTyrRS (Plasmodium falciparum, UniProt Q8IAR7). Description: ATP consumption by PfTyrRS (Kinase Glo). The settings on record: Inhibition of PfTyrRS (Kinase Glo) IC50, PfTyrRS 25 nM, ATP 10 μM, tyrosine 200 μM, cognate tRNA^Tyr 4.8 μM, 37°C 1 h. Format: biochemical. Here is the method:
Consumption of ATP was measured using a luciferase-based assay as per the manufacturer’s instructions (Kinase-Glo Luminescent Kinase Assay, Promega).

Series [2] concerns the target T1, PfTyrRS. Put plainly: Differential scanning fluorimetry (DSF) of PfTyrRS. The class given is binding. Here is the method:
The effect on ML471 and analogues on the thermal stability of TyrRS enzymes was assayed as previously described. […] SYPRO Orange (Sigma-Aldrich; 5,000X concentrate in DMSO) was added to the reaction mixture at a final concentration of 5X. 25 μL of the sample was added into each well of a 96-well qPCR plate (Applied Biosystems). The plate was sealed and analysed using StepOnePlus Real-Time PCR system (Applied Biosystems). The samples were heated from 20°C to 90°C with a 1% continuous gradient. The thermal unfolding curve was plotted as the first derivative curve of the raw fluorescence values. The melting temperature (Tm), defined as the peak of the first derivative curve, was used to assess the thermal stability of protein-ligand complexes.
On the technique in general: DSF heats the sample and reads unfolding from a dye or from intrinsic fluorescence.

The test system of series [3] is P. falciparum (3D7, ring stage) cultures. The settings on record: read-out: P. falciparum 72-h IC50 (3D7); 3D7, 72 h exposure; ref [16]; cited from earlier work.
In series [4] the test system is HCT116. The conditions noted are these: read-out: HCT116 IC50_72h; 72 h; ref [16]; cited from earlier work.
Series [5] concerns the molecule itself. Put plainly: crystal structure; PfTyrRS (10 mg/mL) with 500 uM synthetic Tyr-ML471; sitting drop vapour diffusion at 20°C, 2.25 M sodium malonate pH 6; refined at 1.8 Å.

Several values for one entry are separate records, joined by “and”; a condition that tells them apart may be missing. Equal values may be shown once.

Regarding `Nc1ncnc2c1ncn2[C@@H]1O[C@H](COS(N)(=O)=O)[C@@H](O)[C@H]1O` [AMS, adenosine 5’-monosulfamate, reference compound], the IC50 in series [1] was 51700 nM and 52000 nM; in series [3], 1.8 ± 0.6 nM; in series [4] it was 26 nM. The dissociation constant Kd in series [2] amounted to 1.3 nM. Moreover, the ΔTm at 50 µM in series [2] (2 h, read-out: PfTyrRS binding (DSF) Delta Tm) worked out at 13.6 ± 0.7 °C. The “PfTyrRS Tm” value in series [2] (with sulfamate, ATP, tyrosine and tRNA, apo 49.9 ± 0.6) was found to be 63.5 ± 0.7 °C.

B1: Plasmodium falciparum cytoplasmic tyrosine tRNA synthetase (enzyme, P. falciparum)
chain: METTDTKREEQEIEEKKAQEESKIEDVDKILNDILSISSECIQPDELRVKLLLKRKLICYDGFEPSGRMHIAQGLLKSIIVNKLTSNGCTFIFWIADWFAHLNNKMSGDLKKIKKVGSYFIEVWKSCGMNMENVQFLWASEEINKKPNEYWSLVLDISRSFNINRMKRCLKIMGRSEGEENYCSQILYPCMQCADIFFLNVDICQLGIDQRKVNMLAREYCDIKKIKKKPVILSHGMLPGLLEGQEKMSKSDENSAIFMDDSESDVNRKIKKAYCPPNVIENNPIYAYAKSIIFPSYNEFNLVRKEKNGGDKTYYTLQELEHDYVNGFIHPLDLKDNVAMYINKLLQPVRDHFQNNIEAKNLLNEIKKYKVTK
notes: Plasmodium falciparum cytoplasmic tyrosine tRNA synthetase; also called PfTyrRS; His-PfTyrRS; source: E. coli BL21(DE3), purified (HisTrap HP, TEV cleavage, second HisTrap HP, Superdex 200 gel filtration)
For B1, the “stoichiometry N” value in series [5] was 2.

Source of the values: paper PMC11671014 (PLOS Pathogens, 2024).
